In US9051325B2, “Bicyclic [5,6] imidazo pyrimodone compounds for use in the treatment of diseases or conditions mediated by Lp-PLA2” (GlaxoSmithKline Intellectual Property Development Limited, priority 2013, dated 2015):
Where two headings read alike, the source gives them in different places.

How the values were obtained:
[1] = target: T1, recombinant human Lp-PLA2 (Homo sapiens, UniProt Q13093); experiment: Recombinant human Lp-PLA2 assay (rhLp-PLA2, PED6 assay); assay type: biochemical
T1 sequence (Q13093 22-441): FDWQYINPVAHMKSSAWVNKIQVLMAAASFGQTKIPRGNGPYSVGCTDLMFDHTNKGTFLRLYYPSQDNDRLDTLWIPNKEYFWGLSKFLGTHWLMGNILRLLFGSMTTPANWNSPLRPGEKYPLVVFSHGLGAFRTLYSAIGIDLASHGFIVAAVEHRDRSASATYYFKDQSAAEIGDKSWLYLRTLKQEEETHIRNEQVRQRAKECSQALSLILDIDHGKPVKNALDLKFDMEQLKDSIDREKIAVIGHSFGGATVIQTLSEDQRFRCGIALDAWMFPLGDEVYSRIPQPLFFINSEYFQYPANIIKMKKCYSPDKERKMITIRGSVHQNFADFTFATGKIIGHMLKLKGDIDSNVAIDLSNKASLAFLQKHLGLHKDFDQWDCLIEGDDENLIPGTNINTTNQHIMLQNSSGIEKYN
Text: (1) Recombinant Human Lp-PLA2 Assay (rhLp-PLA2) (Also Referred to as “PED6” Assay)
N-((6-(2,4-dinitrophenyl)amino)-hexanoyl)-2-(4,4-difluoro-5,7-dimethyl-4-bora-3a,4a-diaza-s-indacene-3-pentanoyl)-1-hexadecanoyl-sn-glycero-3-phosphoethanolamine, triethylammonium salt (PED6) is a commercially available fluorescently-labeled phospholipid, which is commercially available from Invitrogene and Molecular Probes. There is a quenching […] and a Bodipy fluorescein (FL) group in the sn2 position. Upon cleavage with Lp-PLA2, the Bodipy FL group is liberated and then may result in an increase in fluorescence. Inhibitors of Lp-PLA2 therefore prevent this cleavage and no fluorescent increase is observed.
The PED6 assay was run as an unquenched 10 μL assay. The source plate containing the compounds to be tested was prepared by making 1:3 (by volume) serial dilution of the compounds within DMSO on 384-well microplate. Then, 0.01 μL of the compounds on compound source plate were transferred into 384 well Greiner 784076 (black) plates using ECHO liquid dispenser. 5 μL of recombinant human Lp-PLA2 enzyme (4 nM (or […]) rhLp-PLA2 in assay buffer of 50 mM HEPES, pH 7.4, 150 mM NaCl, 1 mM CHAPS) was added to each well of the plate. Plates were centrifuged for 10 sec at 500 rpm. After 30 minutes preincubation, 5 μL of substrate ([…] PED6 [from 5 mM DMSO stock] in assay buffer of 50 mM HEPES, pH 7.4, 150 mM NaCl, 1 mM CHAPS) was added to 384 well Greiner 784076 (black) plates. Plates were centrifuged for 10 sec at 500 rpm. The plate was covered to protect it from light and incubated for 20 min at room temperature. The plates were read for fluorescence intensity at ex: 480/em: 540 using ViewLux microplate imager for Envision spectrofluoroimeters pIC50 data, curve and QC analysis was conducted by using XL fit module in Excel.

Lp-PLA2 in human plasma = target: T2, Lp-PLA2 in human plasma (Homo sapiens, UniProt Q13093); experiment: Lp-PLA2 human plasma assay (Thio-PAF assay); assay type: biochemical; conditions: pooled human plasma; lower bounds; read-out: pIC50 values in the thio-PAF assay (converted)
T2 construct: from tissue; host or cells: pooled human plasma
T2 sequence (Q13093 22-441): T1 sequence (Q13093 22-441)
Text: (3) Lipoprotein-Associated Phospholipase A2 (Lp-PLA2) Human Plasma Assay (Also Referred to as “Thio-PAF assay”)
The human plasma assay utilizes a thioester analog of PAF (phosphatidylcholine), where hydrolysis yields to the formation of a phospholipid containing a free thiol group. The amount of thiol is quantitated continuously by reacting with CPM (7-diethylamino-3-(4′-maleimidylphenyl)-4-methylcoumarin), a maleimide which increases in fluoresence after Michael addition of thiols. This assay may detect the activity of Lp-PLA2 in human plasma, as determined by specific inhibition by Lp-PLA2 inhibitors.
The thio-PAF assay was run as a quenched 15 μL assay. Compounds source plate was prepared by making 1:3 (by volume) serial dilution of the compounds into pure DMSO on 384-well microplate. 0.01 μL of compounds on compound source plate were transferred to 384 well Greiner 784076 (black) low-volume plates by ECHO liquid dispenser. 8 μL pooled human plasma, which was previously aliquoted and frozen, was added. Plates were centrifuged for 10 sec at 500 rpm. After 30 minutes preincubation, 2 μL of substrate solution comprising 2.5 mM 2-thio-PAF [from ethanol stock], 32 μM CPM [from a DMSO stock] and 3.2 mM NEM (N-ethylmaleimide) [made fresh daily in DMSO] in assay buffer of 50 mM HEPES, pH 7.4, 150 mM NaCl, 1 mM CHAPS was added to 384 well Greiner 784076 (black) low-volume plates by BRAVO liquid handling station. After 2 mins, reaction was quenched with 5 μL of 5% aqueous trifluoroacetic acid (TFA). Plates were covered to protect from light and incubated for 40 min at room temperature. Plates were read at ex: 380/em: 485 using-Envision microplate reader. PIC50 data, curve and QC analysis were conducted by using XLFit module in Excel.

[2] = lower bounds, read-out: pIC50 values in the PED6 assay (converted)
[3] = read-out: rhLp-PLA2 (PED6 assay) (pIC50) (converted)

Row | IC50 [1, 2] | IC50 [1, 3] | IC50 (Lp-PLA2 in human plasma) | SMILES
1 | ≤ 1 nM | 0.1 nM | ≤ 100 nM | C[C@H]1Cn2c(cc(OCc3cc(F)c(Oc4cncc(C(F)(F)F)c4)c(F)c3)nc2=O)N1C [Example E56, (S)-7-((3,5-difluoro-4-((5-(trifluoromethyl)pyridin-3-yl)oxy)benzyl)oxy)-1,2-dimethyl-2,3-dihydroimidazo[1,2-c]pyrimidin-5(1H)-one]
2 | ≤ 10 nM |  | ≤ 100 nM | [2H]C1([2H])n2c(cc(OCc3cc(F)cc(F)c3)nc2=O)N(C)C1(C)C [Example E137, 7-((3,5-difluorobenzyl)oxy)-1,2,2-trimethyl-3,3-dideutero-2,3-dihydroimidazo[1,2-c]pyrimidin-5(1H)-one]
3 | ≤ 1 nM |  | ≤ 100 nM | CC1(C)Cn2c(cc(OCc3ccc(Oc4cncc(C(F)(F)F)c4)c(F)c3)nc2=O)N1 [Example E41, 7-((3-fluoro-4-((5-(trifluoromethyl)pyridin-3-yl)oxy)benzyl)oxy)-2,2-dimethyl-2,3-dihydroimidazo[1,2-c]pyrimidin-5(1H)-one]
4 | ≤ 10 nM |  | ≤ 100 nM | [2H]C1([2H])n2c(cc(OCc3cccc(F)c3F)nc2=O)N(C)C1(C)C [Example E136, 7-((2,3-difluorobenzyl)oxy)-1,2,2-trimethyl-3,3-dideutero-2,3-dihydroimidazo[1,2-c]pyrimidin-5(1H)-one]
5 | ≤ 1 nM |  | ≤ 100 nM | C[C@H]1Cn2c(cc(OCc3ccc(Oc4ccnc(C(F)(F)F)c4)c(F)c3)nc2=O)N1 [Example E78, (S)-7-((3-fluoro-4-((2-(trifluoromethyl)pyridin-4-yl)oxy)benzyl)oxy)-2-methyl-2,3-dihydroimidazo[1,2-c]pyrimidin-5(1H)-one]
6 | ≤ 1 nM |  | ≤ 100 nM | C[C@H]1Cn2c(cc(OCc3ccc(Oc4ccc(F)c(F)c4)c(C#N)c3)nc2=O)N1C [Example E88, (S)-2-(3,4-difluorophenoxy)-5-(((1,2-dimethyl-5-oxo-1,2,3,5-tetrahydroimidazo[1,2-c]pyrimidin-7-yl)oxy)methyl)benzonitrile]
7 | ≤ 10 nM |  | ≤ 100 nM | CC1Cn2c(cc(OCc3ccc(F)c(C#N)c3)nc2=O)N1C (stereo not shown) [Example E121, 5-(((1,2-dimethyl-5-oxo-1,2,3,5-tetrahydroimidazo[1,2-c]pyrimidin-7-yl)oxy)methyl)-2-fluorobenzonitrile]
8 | ≤ 1 nM |  | ≤ 100 nM | CN1c2cc(OCc3ccc(Oc4ccc(F)nc4)c(F)c3)nc(=O)n2CC1(C)C [Example E98, 7-((3-fluoro-4-((6-fluoropyridin-3-yl)oxy)benzyl)oxy)-1,2,2-trimethyl-2,3-dihydroimidazo[1,2-c]pyrimidin-5(1H)-one]
9 | ≤ 10 nM |  | ≤ 100 nM | C[C@H]1Cn2c(cc(OCc3cc(F)c(F)c(F)c3)nc2=O)N1C [Example E108, (S)-1,2-dimethyl-7-((3,4,5-trifluorobenzyl)oxy)-2,3-dihydroimidazo[1,2-c]pyrimidin-5(1H)-one]
10 | ≤ 1 nM |  | ≤ 100 nM | C[C@H]1Cn2c(cc(OCc3ccc(Oc4ccc(Cl)c(C#N)c4)c(F)c3)nc2=O)N1C [Example E89, (S)-2-chloro-5-(4-(((1,2-dimethyl-5-oxo-1,2,3,5-tetrahydroimidazo[1,2-c]pyrimidin-7-yl)oxy)methyl)-2-fluorophenoxy)benzonitrile]
11 | ≤ 1 nM |  | ≤ 100 nM | CN1c2cc(OCc3ccc(Oc4ccc(C(F)(F)F)nc4)c(F)c3)nc(=O)n2CC1(C)C [Example E112, 7-((3-fluoro-4-((6-(trifluoromethyl)pyridin-3-yl)oxy)benzyl)oxy)-1,2,2-trimethyl-2,3-dihydroimidazo[1,2-c]pyrimidin-5(1H)-one]
12 | ≤ 1 nM |  | ≤ 100 nM | C[C@@H]1Cn2c(cc(OCc3ccc(Oc4cncc(C(F)(F)F)c4)c(C#N)c3)nc2=O)N1C [Example E123, (R)-5-(((1,2-dimethyl-5-oxo-1,2,3,5-tetrahydroimidazo[1,2-c]pyrimidin-7-yl)oxy)methyl)-2-((5-(trifluoromethyl)pyridin-3-yl)oxy)benzonitrile]
13 | ≤ 1 nM | 0.631 nM | ≤ 100 nM | [2H]C([2H])(Oc1cc2n(c(=O)n1)CC(C)(C)N2C(C)C)c1cc(F)cc(F)c1 [Example E97, 7-(dideutero(3,5-difluorobenzyl)oxy)-1-isopropyl-2,2-dimethyl-2,3-dihydroimidazo[1,2-c]pyrimidin-5(1H)-one]
14 | ≤ 1 nM |  | ≤ 100 nM | CN1c2cc(OCc3cc(F)c(Oc4ccnc(Cl)c4)c(F)c3)nc(=O)n2CC1(C)C [Example E30, 7-((4-((2-chloropyridin-4-yl)oxy)-3,5-difluorobenzyl)oxy)-1,2,2-trimethyl-2,3-dihydroimidazo[1,2-c]pyrimidin-5(1H)-one]
15 | ≤ 1 nM | 0.0794 nM | ≤ 100 nM | CN1c2cc(OCc3cc(F)c(Oc4ccc(F)nc4)c(F)c3)nc(=O)n2CC1(C)C [Example E64, 7-((3,5-difluoro-4-((6-fluoropyridin-3-yl)oxy)benzyl)oxy)-1,2,2-trimethyl-2,3-dihydroimidazo[1,2-c]pyrimidin-5(1H)-one]
16 | ≤ 10 nM |  | ≤ 100 nM | C[C@H]1Cn2c(cc(OCc3ccc(F)c(C#N)c3)nc2=O)N1C [Example E75, (S)-5-(((1,2-dimethyl-5-oxo-1,2,3,5-tetrahydroimidazo[1,2-c]pyrimidin-7-yl)oxy)methyl)-2-fluorobenzonitrile]
17 | ≤ 10 nM |  | ≤ 100 nM | [2H]C([2H])([2H])N1c2cc(OCc3cccc(F)c3F)nc(=O)n2CC1(C)C [Example E104, 7-((2,3-difluorobenzyl)oxy)-1-trideuteromethyl-2,2-dimethyl-2,3-dihydroimidazo[1,2-c]pyrimidin-5(1H)-one]
18 | ≤ 1 nM |  | ≤ 100 nM | CC1Cn2c(cc(OCc3ccc(Oc4cc(F)cc(C(F)(F)F)c4)c(F)c3)nc2=O)N1C (stereo not shown) [Example E119, 7-((3-fluoro-4-(3-fluoro-5-(trifluoromethyl)phenoxy)benzyl)oxy)-1,2-dimethyl-2,3-dihydroimidazo[1,2-c]pyrimidin-5(1H)-one]
19 | ≤ 1 nM |  | ≤ 100 nM | CC1Cn2c(cc(OCc3ccc(Oc4ccnc(C(F)(F)F)c4)c(F)c3)nc2=O)N1C (stereo not shown) [Example E31, 7-((3-fluoro-4-((2-(trifluoromethyl)pyridin-4-yl)oxy)benzyl)oxy)-1,2-dimethyl-2,3-dihydroimidazo[1,2-c]pyrimidin-5(1H)-one]
20 |  |  | ≤ 100 nM | CN1c2cc(OCCC3CCCC3)nc(=O)n2CC1(C)C [Example E52, 7-(2-cyclopentylethoxy)-1,2,2-trimethyl-2,3-dihydroimidazo[1,2-c]pyrimidin-5(1H)-one]
21 |  |  | ≤ 100 nM | C[C@H]1Cn2c(cc(OCc3cc(F)cc(F)c3)nc2=O)N1 [Example E85, (S)-7-((3,5-difluorobenzyl)oxy)-2-methyl-2,3-dihydroimidazo[1,2-c]pyrimidin-5(1H)-one]
